Broadly, the Ki is the dissociation constant of the complex between target and ligand, obtained from inhibition or displacement.

The source of these data is patent publication US9296741B2, “Bromodomain inhibitors” (priority 2012, dated 2016).

The target of data set [1] is human BRD4 first bromodomain (BDI_K57-E168) (Homo sapiens (Human), UniProt O60885). As to the kind of experiment: TR-FRET bromodomain binding assay, BRD4 first bromodomain. (In general: In TR-FRET formats the signal depends on donor and acceptor labels being close together.)
Data set [2] deals with human BRD4 second bromodomain (BDII_E352-M457) (Homo sapiens (Human), UniProt O60885). The experiment in a line: TR-FRET bromodomain binding assay, BRD4 second bromodomain.
A short description of data set [3]: Human liver microsome stability assay. The following applies: both sexes, human, microsomes, pH 7.4. Type of data set: in vitro ADME.
Data set [4] is described as follows: Rat liver microsome stability assay. Type of data set: in vitro ADME. The following applies: rat liver microsomes (male Sprague-Dawley), 0.5 μM test compound, pH 7.4, 37° C.; for half-life at 0.5 μM: 0.25 mg/mL microsomal protein, read-out: Stability in rat liver microsomes (t1/2 in minutes).
In data set [5] the test system is breast cancer cell line MX-1. The experiment in a line: MX-1 cell line proliferation assay. Type of data set: cell-based, human. The following applies: Homo sapiens, MX1, 72 h; MX-1 cells, 3-day proliferation, Cell Titer Glo; read-out: Cellular proliferation: EC50.

As to `Cn1cc(-c2ccccc2Cc2ccccc2)c2cc[nH]c2c1=O` [Example 195, 4-(2-benzylphenyl)-6-methyl-1,6-dihydro-7H-pyrrolo[2,3-c]pyridin-7-one], the Ki turned out to be 5.5 µM in data set [1] and 1.02 µM in data set [2]. This compound registered a half-life at 0.5 μM in data set [3] of 13 min. For the same compound, the “Stability in rat liver microsomes (t1/2 in minutes)” value in data set [4] ([…] microsomal protein) was 1 min.
On to `COc1ccc(NC(=O)c2ccc(Oc3ccc(F)cc3F)c(-c3cn(C)c(=O)c4[nH]ccc34)c2)c(OC)n1` [Example 117, 4-(2,4-difluorophenoxy)-N-(2,6-dimethoxypyridin-3-yl)-3-(6-methyl-7-oxo-6,7-dihydro-1H-pyrrolo[2,3-c]pyridin-4-yl)benzamide], for which the results for the Ki in data set [1] and in data set [2] were 2.3 µM and 0.486 µM, respectively. Further, the half-life at 0.5 μM in data set [3] is 34 min; in data set [4] it was 36 min.
The like results for `Cn1cc(-c2cc(S(C)(=O)=O)ccc2Oc2ccc(Cl)c(F)c2)c2cc[nH]c2c1=O` [Example 189, 4-[2-(4-chloro-3-fluorophenoxy)-5-(methylsulfonyl)phenyl]-6-methyl-1,6-dihydro-7H-pyrrolo[2,3-c]pyridin-7-one] were, in that order, 0.0304 µM, 0.023 µM, 34 min and 55 min.
`Cn1cc(-c2cc(C(=O)Nc3ncccn3)ccc2Oc2ccc(F)cc2F)c2cc[nH]c2c1=O` [Example 116, 4-(2,4-difluorophenoxy)-3-(6-methyl-7-oxo-6,7-dihydro-1H-pyrrolo[2,3-c]pyridin-4-yl)-N-(pyrimidin-2-yl)benzamide]: the inhibitory constant (Ki) in data set [1] was found to be 0.105 µM; in data set [2], 0.0891 µM.
The like results for `Cn1cc(-c2cc(S(C)(=O)=O)ccc2Oc2cccc3c2CCC3=O)c2cc[nH]c2c1=O` [Example 175, 6-methyl-4-{5-(methylsulfonyl)-2-[(1-oxo-2,3-dihydro-1H-inden-4-yl)oxy]phenyl}-1,6-dihydro-7H-pyrrolo[2,3-c]pyridin-7-one] were, in that order, 0.0258 µM and 0.0178 µM.
As for `Cn1cc(-c2cc(C(=O)N3CCS(=O)(=O)CC3)ccc2Oc2ccc(F)cc2F)c2cc[nH]c2c1=O` [Example 52, 4-{2-(2,4-difluorophenoxy)-5-[(1,1-dioxidothiomorpholin-4-yl)carbonyl]phenyl}-6-methyl-1,6-dihydro-7H-pyrrolo[2,3-c]pyridin-7-one], the EC50 in data set [5] came to 0.309 µM.
Same read-out and setting: then `Cn1nc(-c2cc(NS(C)(=O)=O)ccc2Oc2ccccc2)c2cc(C(=O)O)[nH]c2c1=O` [Example 77, 6-methyl-4-{5-[(methylsulfonyl)amino]-2-phenoxyphenyl}-7-oxo-6,7-dihydro-1H-pyrrolo[2,3-d]pyridazine-2-carboxylic acid], with over 3 µM.
As for `Cc1cccc(OCC2CC2)c1-c1cn(C)c(=O)c2[nH]ccc12` [Example 247, 4-[2-(cyclopropylmethoxy)-6-methylphenyl]-6-methyl-1,6-dihydro-7H-pyrrolo[2,3-c]pyridin-7-one], the inhibitory constant (Ki) in data set [1] was 1.1 µM; in data set [2], 3 µM.
Consider `Cn1cc(-c2cc(N)ccc2Oc2ccccc2)c2cc[nH]c2c1=O` [Example 3, 4-(5-amino-2-phenoxyphenyl)-6-methyl-1,6-dihydro-7H-pyrrolo[2,3-c]pyridin-7-one], for which the EC50 in data set [5] turned out to be 0.185 µM.
Still for that read-out and setting: then `Cn1cc(-c2cc(S(C)(=O)=O)ccc2Oc2cc(C(F)(F)F)ccc2Cl)c2cc[nH]c2c1=O` [Example 163, 4-{2-[2-chloro-5-(trifluoromethyl)phenoxy]-5-(methylsulfonyl)phenyl}-6-methyl-1,6-dihydro-7H-pyrrolo[2,3-c]pyridin-7-one], with 0.295 µM; and `Cn1cc(-c2cc(Cn3cccn3)ccc2Oc2ccccc2)c2cc[nH]c2c1=O` [Example 30, 6-methyl-4-[2-phenoxy-5-(1H-pyrazol-1-ylmethyl)phenyl]-1,6-dihydro-7H-pyrrolo[2,3-c]pyridin-7-one], with 0.562 µM.
Turning to `Cn1cc(-c2cc(S(C)(=O)=O)ccc2Oc2cccc3ccccc23)c2cc[nH]c2c1=O` [Example 185, 6-methyl-4-[5-(methylsulfonyl)-2-(naphthalen-1-yloxy)phenyl]-1,6-dihydro-7H-pyrrolo[2,3-c]pyridin-7-one], the Ki stood at 0.0345 µM in data set [1] and 0.0122 µM in data set [2].
Taken in the same sequence, the figures for `Cn1cc(-c2cc(C(=O)NC3CCN(C(=O)OC(C)(C)C)CC3)ccc2Oc2ccc(F)cc2F)c2cc[nH]c2c1=O` [Example 136, tert-butyl 4-{[4-(2,4-difluorophenoxy)-3-(6-methyl-7-oxo-6,7-dihydro-1H-pyrrolo[2,3-c]pyridin-4-yl)benzoyl]amino}piperidine-1-carboxylate] were 0.234 µM and 0.295 µM.
The like results for `Cn1cc(-c2cc(S(C)(=O)=O)ccc2Oc2ccc3c(c2)CCC3=O)c2cc[nH]c2c1=O` [Example 181, 6-methyl-4-{5-(methylsulfonyl)-2-[(1-oxo-2,3-dihydro-1H-inden-5-yl)oxy]phenyl}-1,6-dihydro-7H-pyrrolo[2,3-c]pyridin-7-one] were, in that order, 0.0305 µM and 0.0224 µM.
Take `CN(C)S(=O)(=O)c1cnc(OC2CCOC2)c(-c2cn(C)c(=O)c3[nH]ccc23)c1` (stereo not drawn) [Example 110, N,N-dimethyl-5-(6-methyl-7-oxo-6,7-dihydro-1H-pyrrolo[2,3-c]pyridin-4-yl)-6-(tetrahydrofuran-3-yloxy)pyridine-3-sulfonamide]: the EC50 in data set [5] turned out to be 0.0324 µM.
Consider `Cn1cc(-c2cc(S(C)(=O)=O)ccc2Oc2ccc3c(c2)C(=O)CC3)c2cc[nH]c2c1=O` [Example 182, 6-methyl-4-{5-(methylsulfonyl)-2-[(3-oxo-2,3-dihydro-1H-inden-5-yl)oxy]phenyl}-1,6-dihydro-7H-pyrrolo[2,3-c]pyridin-7-one], for which the results for the inhibition constant (Ki) in data set [1] and in data set [2] were 0.019 µM and 0.0097 µM, respectively.
The like results for `Cn1cc(-c2cc(C(F)(F)F)ccc2Oc2ccc(F)cc2F)c2cc[nH]c2c1=O` [Example 275, 4-[2-(2,4-difluorophenoxy)-5-(trifluoromethyl)phenyl]-6-methyl-1,6-dihydro-7H-pyrrolo[2,3-c]pyridin-7-one] were, in that order, 0.526 µM and 1.13 µM.
The like results for `Cn1cc(-c2cc(S(C)(=O)=O)ccc2Oc2ccccc2C#N)c2cc[nH]c2c1=O` [Example 183, 2-[2-(6-methyl-7-oxo-6,7-dihydro-1H-pyrrolo[2,3-c]pyridin-4-yl)-4-(methylsulfonyl)phenoxy]benzonitrile] were, in that order, 0.0412 µM and 0.0198 µM.
`CN1CCN(CCNC(=O)c2cc3c(-c4cc(NS(C)(=O)=O)ccc4Oc4ccccc4)nn(C)c(=O)c3[nH]2)CC1` [Example 79, 6-methyl-N-[2-(4-methylpiperazin-1-yl)ethyl]-4-{5-[(methylsulfonyl)amino]-2-phenoxyphenyl}-7-oxo-6,7-dihydro-1H-pyrrolo[2,3-d]pyridazine-2-carboxamide]: in data set [5], the EC50 worked out at 0.887 µM.
Take `Cn1cc(-c2cc(NC(=O)C(C)(C)C)ccc2Oc2ccc(F)cc2F)c2cc[nH]c2c1=O` [Example 39, N-[4-(2,4-difluorophenoxy)-3-(6-methyl-7-oxo-6,7-dihydro-1H-pyrrolo[2,3-c]pyridin-4-yl)phenyl]-2,2-dimethylpropanamide]: the Ki amounted to 0.112 µM in data set [1] and 0.124 µM in data set [2]. The results for the half-life at 0.5 μM in data set [3] and in data set [4] were 9.7 min and 8 min, respectively.
Take `COc1ccc2[nH]cc(CCNC(=O)c3ccc(Oc4ccc(F)cc4F)c(-c4cn(C)c(=O)c5[nH]ccc45)c3)c2c1` [Example 124, 4-(2,4-difluorophenoxy)-N-[2-(5-methoxy-1H-indol-3-yl)ethyl]-3-(6-methyl-7-oxo-6,7-dihydro-1H-pyrrolo[2,3-c]pyridin-4-yl)benzamide]: the inhibition constant Ki was found to be 0.32 µM in data set [1] and 0.169 µM in data set [2]. In addition, the results for the half-life at 0.5 μM in data set [3] and in data set [4] were 2 min and 4 min, respectively.
In the case of `Cn1cc(-c2cc(NC(=O)CC(F)(F)F)ccc2Oc2ccc(F)cc2F)c2cc[nH]c2c1=O` [Example 38, N-[4-(2,4-difluorophenoxy)-3-(6-methyl-7-oxo-6,7-dihydro-1H-pyrrolo[2,3-c]pyridin-4-yl)phenyl]-3,3,3-trifluoropropanamide], the inhibition constant (Ki) came out at 0.148 µM in data set [1] and 0.257 µM in data set [2]. Further, the half-life at 0.5 μM in data set [3] was found to be 16.8 min; in data set [4] it was 25 min.
On to `Cc1c(NS(C)(=O)=O)ccc(OCC2CC2)c1-c1cn(C)c(=O)c2[nH]ccc12` [Example 262, N-[4-(cyclopropylmethoxy)-2-methyl-3-(6-methyl-7-oxo-6,7-dihydro-1H-pyrrolo[2,3-c]pyridin-4-yl)phenyl]methanesulfonamide], for which the Ki was determined as 0.125 µM in data set [1] and 0.489 µM in data set [2]. In addition, the results for the half-life at 0.5 μM in data set [3] and in data set [4] were over 120 min and 25 min, respectively.
For the compound `Cn1cc(-c2cc(C(=O)NCCc3ccc4c(c3)OCO4)ccc2Oc2ccc(F)cc2F)c2cc[nH]c2c1=O` [Example 132, N-[2-(1,3-benzodioxol-5-yl)ethyl]-4-(2,4-difluorophenoxy)-3-(6-methyl-7-oxo-6,7-dihydro-1 H-pyrrolo[2,3-c]pyridin-4-yl)benzamide], the inhibitory constant (Ki) in data set [1] came to 0.238 µM; in data set [2], 0.344 µM.
Taken in the same sequence, the figures for `COc1cc(CNC(=O)c2ccc(Oc3ccc(F)cc3F)c(-c3cn(C)c(=O)c4[nH]ccc34)c2)cc(OC)c1OC` [Example 130, 4-(2,4-difluorophenoxy)-3-(6-methyl-7-oxo-6,7-dihydro-1H-pyrrolo[2,3-c]pyridin-4-yl)-N-(3,4,5-trimethoxybenzyl)benzamide] were 0.183 µM and 0.174 µM.
